This passage reports IC50 results from patent publication US10253027B2, “Aryl lactam kinase inhibitors” (Bristol-Myers Squibb Company, priority 2013, dated 2019).

By IC50 is commonly meant the point on the concentration scale where inhibition reaches its midpoint.

For the assay, the target named is T1, GST-Xa-hAAK1 (Homo sapiens, UniProt Q2M2I8).
T1 construct: made in house
T1 sequence (Q2M2I8 whole entry): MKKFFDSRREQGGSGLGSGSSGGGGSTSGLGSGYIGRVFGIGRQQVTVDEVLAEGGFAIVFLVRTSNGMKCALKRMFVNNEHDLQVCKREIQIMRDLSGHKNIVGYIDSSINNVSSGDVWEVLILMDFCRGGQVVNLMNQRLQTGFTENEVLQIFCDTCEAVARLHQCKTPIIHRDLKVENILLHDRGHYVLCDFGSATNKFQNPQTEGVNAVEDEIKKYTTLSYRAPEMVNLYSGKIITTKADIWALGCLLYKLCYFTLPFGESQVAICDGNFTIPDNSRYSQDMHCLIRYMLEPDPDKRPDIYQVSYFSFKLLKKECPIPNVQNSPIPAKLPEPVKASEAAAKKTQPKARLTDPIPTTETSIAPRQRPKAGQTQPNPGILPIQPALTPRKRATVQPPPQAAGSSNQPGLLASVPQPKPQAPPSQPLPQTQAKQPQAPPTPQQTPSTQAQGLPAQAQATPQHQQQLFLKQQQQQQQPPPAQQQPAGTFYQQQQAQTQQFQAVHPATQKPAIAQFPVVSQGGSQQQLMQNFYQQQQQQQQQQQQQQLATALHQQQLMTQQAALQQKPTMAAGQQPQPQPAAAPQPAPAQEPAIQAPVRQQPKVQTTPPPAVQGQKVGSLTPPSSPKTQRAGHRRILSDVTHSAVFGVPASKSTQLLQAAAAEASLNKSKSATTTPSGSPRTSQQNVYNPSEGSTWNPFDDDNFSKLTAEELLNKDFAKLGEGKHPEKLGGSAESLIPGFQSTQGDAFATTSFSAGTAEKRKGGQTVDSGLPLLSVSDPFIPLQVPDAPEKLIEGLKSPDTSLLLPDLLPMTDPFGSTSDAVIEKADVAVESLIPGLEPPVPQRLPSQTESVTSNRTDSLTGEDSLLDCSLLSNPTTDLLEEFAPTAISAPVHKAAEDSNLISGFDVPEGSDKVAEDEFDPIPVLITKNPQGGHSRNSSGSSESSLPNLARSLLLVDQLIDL
As to the kind of experiment: AAK1 Kinase Assay. To be noted: IC50 (nM), ATP 22 μM; 3 hours at room temperature; Caliper LabChip 3000. The assay is classed as biochemical. The protocol: The assays were performed in U-bottom 384-well plates. […] The reactions were initiated by the combination of bacterially expressed, GST-Xa-hAAK1 with substrates and test compounds. The reactions were incubated at room temperature for 3 hours and terminated by adding 60 μl of 35 mM EDTA buffer to each sample. The reactions were analyzed on the Caliper LabChip 3000 (Caliper, Hopkinton, Mass.) by electrophoretic separation of the fluorescent substrate and phosphorylated product. […] Compounds were dissolved at 10 mM in dimethylsulfoxide (DMSO) and evaluated at eleven concentrations. IC50 values were derived by non-linear regression analysis.
For the molecule `COc1cc(NC(=O)[C@H](N)CC(C)C)ccc1-c1cnc2ccc(Cl)nn12` [Example 47, (R)-2-Amino-N-(4-(6-chloroimidazo[1,2-b]pyridazin-3-yl)-3-methoxyphenyl)-4-methylpentanamide], the IC50 is 440 nM.
Regarding `COc1cc(NC(=O)C2NCCCC2C(C)C)ccc1-c1cnco1` (centres unmarked) [Example 85, 3-Isopropyl-N-(3-methoxy-4-(oxazol-5-yl)phenyl)piperidine-2-carboxamide], the IC50 turned out to be 8 nM.
As for `CC(C)C[C@@H](N)C(=O)Nc1ccc(-c2cn[nH]c2)c(OC(F)F)c1` [Example 41, 2-Amino-N-(3-(difluoromethoxy)-4-(1H-pyrazol-4-yl)phenyl)-4-methylpentanamide], the figure is 45 nM; as for `COc1cc(NC(=O)[C@H](N)CC(C)C)ccc1-n1ccnc1` [Example 25, (R)—N-(4-(1H-Imidazol-1-yl)-3-methoxyphenyl)-2-amino-4-methylpentanamide], 3250 nM.
In the case of `COc1cnccc1-c1ccc(NC(=O)[C@H](N)CC(C)C)cc1` [Example 44, (R)-2-Amino-N-(4-(3-methoxypyridin-4-yl)phenyl)-4-methylpentanamide], the IC50 is 140 nM.
As for `COc1cc(NC(=O)[C@@H](CC(C)C)NCc2ccccc2O)ccc1-c1cnco1` [Example 62], the figure is 220 nM; as for `COc1cc(NC(=O)C2CCCCN2C(=O)C(C)C)ccc1-c1cnco1` (centres unmarked) [Example 80, 1-Isobutyryl-N-(3-methoxy-4-(oxazol-5-yl)phenyl)piperidine-2-carboxamide], 630 nM.
As for `CCCC[C@@H](N)C(=O)Nc1ccc(-c2cnco2)c(OC)c1` [Example 52, (R)-2-Amino-N-(3-methoxy-4-(oxazol-5-yl)phenyl)hexanamide], the figure is 530 nM; as for `COc1cc(NC(=O)[C@@H](CC(C)C)NCc2cccn2C)ccc1-c1cnco1` [Example 61, (R)—N-(3-Methoxy-4-(oxazol-5-yl)phenyl)-4-methyl-2-(((1-methyl-1H-pyrrol-2-yl)methyl)amino)pentanamide], 72 nM; as for `COc1cc(NC(=O)[C@@H]2NCCC[C@@H]2C(C)C)ccc1-c1cnco1` [Example 88, (2R,3R)-3-Isopropyl-N-(3-methoxy-4-(oxazol-5-yl)phenyl)piperidine-2-carboxamide], 8 nM.
As for `CC[C@@H](N)C(=O)Nc1ccc(-c2cnco2)c(OC)c1` [Example 50, (R)-2-Amino-N-(3-methoxy-4-(oxazol-5-yl)phenyl)butanamide], the figure is 340 nM; as for `COc1cc(NC(=O)[C@H](N)CC2CC2)ccc1-c1cnco1` [Example 9, (R)-2-Amino-3-cyclopropyl-N-(3-methoxy-4-(oxazol-5-yl)phenyl)propanamide], 115 nM; as for `COc1cc(NC(=O)[C@H](N)CCSC)ccc1-c1cnco1` [Example 54, (R)-2-Amino-N-(3-methoxy-4-(oxazol-5-yl)phenyl)-4-(methylthio)butanamide], 720 nM.
For `COc1cc(NC(=O)[C@@H]2CCCN2C(=O)C(C)C)ccc1-c1cnco1` [Example 82, (S)-1-Isobutyryl-N-(3-methoxy-4-(oxazol-5-yl)phenyl)pyrrolidine-2-carboxamide], the IC50 was determined as 1800 nM.
As for `COc1cc(NC(=O)[C@H](N)CC(C)C)ccc1-c1cnc2cccnn12` [Example 46, (R)-2-amino-N-(4-(imidazo[1,2-b]pyridazin-3-yl)-3-methoxyphenyl)-4-methylpentanamide], the figure is 2200 nM; as for `COc1cc(NC(=O)[C@H](N)CC(C)C)c(F)cc1-c1cnco1` [Example 98, (R)-2-Amino-N-(2-fluoro-5-methoxy-4-(oxazol-5-yl)phenyl)-4-methylpentanamide], 1120 nM.
As for `COc1cc(NC(=O)[C@H](N)CC(C)C)ccc1-c1ccncc1` [Example 20, (R)-2-Amino-N-(3-methoxy-4-(pyridin-4-yl)phenyl)-4-methylpentanamide], the figure is 63 nM; as for `COc1cc(NC(=O)C2CNCCN2C(C)C)ccc1-c1cnco1` (centres unmarked) [Example 86, 1-Isopropyl-N-(3-methoxy-4-(oxazol-5-yl)phenyl)piperazine-2-carboxamide], 52 nM.
With `COc1cc(NC(=O)[C@H](N)CC(C)C)c(Cl)cc1-c1cnco1` [Example 27, (R)-2-Amino-N-(2-chloro-5-methoxy-4-(oxazol-5-yl)phenyl)-4-methylpentanamide], the IC50 was found to be 54 nM.
On to `COc1cc(NC(=O)[C@@H](CC(C)C)NS(C)(=O)=O)ccc1-c1cnco1` [Example 68, (R)—N-(3-Methoxy-4-(oxazol-5-yl)phenyl)-4-methyl-2-(methylsulfonamido)pentanamide], for which the IC50 turned out to be 67 nM.
As for `CNc1ccc2ncc(-c3ccc(NC(=O)[C@H](N)CC(C)C)cc3OC)n2n1` [Example 49, (R)-2-Amino-N-(3-(methoxy)-4-(6-(methylamino)imidazo[1,2-b]pyridazin-3-yl)phenyl)-4-methylpentanamide], the 50% inhibitory concentration (IC50) was 90 nM.
As for `COc1c(-c2cnco2)cc(Cl)c(NC(=O)[C@H](N)CC(C)C)c1Cl` [Example 29, (R)-2-Amino-N-(2,6-dichloro-3-methoxy-4-(oxazol-5-yl)phenyl)-4-methylpentanamide], the 50% inhibitory concentration (IC50) was 344 nM.
The value for `COc1cc(NC(=O)[C@H](N)CC(C)C)ccc1-c1cn[nH]c1` [Example 24, (R)-2-Amino-N-(3-methoxy-4-(1H-pyrazol-4-yl)phenyl)-4-methylpentanamide] was 19 nM; that for `COc1cc(NC(=O)C(N)C2CCCCC2C)ccc1-c1cnco1` (mixture of isomers) [Example 93, 2-Amino-N-(3-methoxy-4-(oxazol-5-yl)phenyl)-2-(2-methylcyclohexyl)acetamide] was 20 nM; that for `CC(C)C[C@@H](N)C(=O)Nc1cc(F)c(-c2cnco2)cc1F` [Example 105, (R)-2-Amino-N-(2,5-difluoro-4-(oxazol-5-yl)phenyl)-4-methylpentanamide] was 620 nM.
In the case of `CC(C)C[C@@H](N)C(=O)Nc1ccc(-c2cnco2)c(F)c1` [Example 40, (R)-2-Amino-N-(3-fluoro-4-(oxazol-5-yl)phenyl)-4-methylpentanamide], the IC50 is 460 nM.
The value for `CC(C)C[C@@H](N)C(=O)Nc1ccc(-c2cnco2)c(C#N)c1` [Example 108, (R)-2-Amino-N-(3-cyano-4-(oxazol-5-yl)phenyl)-4-methylpentanamide] was 47 nM; that for `COc1cc(NC(=O)C2NCCCC2C(F)(F)F)ccc1-c1cnco1` (single isomer, unassigned) [Example 92, N-(3-Methoxy-4-(oxazol-5-yl)phenyl)-3-(trifluoromethyl)piperidine-2-carboxamide] was 74 nM.
The value for `COc1cc(NC(=O)[C@H](N)C2CCCC2)c(F)cc1-c1cnco1` [Example 100, (R)-2-Amino-2-cyclopentyl-N-(2-fluoro-5-methoxy-4-(oxazol-5-yl)phenyl)acetamide] was 530 nM; that for `COc1cc(NC(=O)[C@H](N)CO)ccc1-c1cnco1` [Example 75, (R)-2-Amino-3-hydroxy-N-(3-methoxy-4-(oxazol-5-yl)phenyl)propanamide] was 5100 nM; that for `COc1cc(NC(=O)[C@H]2CCCN2)ccc1-c1cnco1` [Example 2, (R)—N-(3-Methoxy-4-(oxazol-5-yl)phenyl)pyrrolidine-2-carboxamide] was 346 nM.
`COc1cc(NC(=O)C2NCCCC2C(F)(F)F)ccc1-c1cnco1` (single isomer, unassigned) [Example 91, N-(3-Methoxy-4-(oxazol-5-yl)phenyl)-3-(trifluoromethyl)piperidine-2-carboxamide]: the IC50 turned out to be 417 nM.
As for `COc1cc(NC(=O)[C@H](N)C(C)C)c(F)cc1-c1cnco1` [Example 96, (R)-2-Amino-N-(2-fluoro-5-methoxy-4-(oxazol-5-yl)phenyl)-3-methylbutanamide], the figure is 780 nM.
The value for `COc1cc(NC(=O)[C@H](N)CC(C)C)ccc1-n1cncn1` [Example 26, (R)-2-Amino-N-(3-methoxy-4-(1H-1,2,4-triazol-1-yl)phenyl)-4-methylpentanamide] was 955 nM; that for `COc1cc(NC(=O)C(CN)CC(C)C)ccc1-c1cnco1` (centres unmarked) [Example 35, 2-(Aminomethyl)-N-(3-methoxy-4-(oxazol-5-yl)phenyl)-4-methylpentanamide] was 83 nM.
The value for `COc1cc(NC(=O)[C@H](N)CC(C)(C)C)ccc1-c1cnco1` [Example 74, (R)-2-Amino-N-(3-methoxy-4-(oxazol-5-yl)phenyl)-4,4-dimethylpentanamide] was 680 nM; that for `Cc1cc(NC(=O)[C@H](N)CC(C)C)ccc1-c1cnco1` [Example 13, (R)-2-Amino-4-methyl-N-(3-methyl-4-(oxazol-5-yl)phenyl)pentanamide] was 248 nM.
Take `NC(C(=O)Nc1ccc(-c2ccncc2)cc1)C1CCCCC1C(F)(F)F` (mixture of isomers) [Example 122, 2-Amino-N-(4-(pyridin-4-yl)phenyl)-2-(2-(trifluoromethyl)cyclohexyl)acetamide]: the IC50 was 64 nM.
As for `COc1cc(NC(=O)[C@H](N)C2CCCC2)ccc1-c1cnco1` [Example 3, (R)-2-Amino-2-cyclopentyl-N-(3-methoxy-4-(oxazol-5-yl)phenyl)acetamide], the figure is 53 nM; as for `COc1cc(NC(=O)[C@H](N)CC(C)(C)C)c(F)cc1-c1cnco1` (stereo in doubt) [Example 97, 2-Amino-N-(2-fluoro-5-methoxy-4-(oxazol-5-yl)phenyl)-4,4-dimethylpentanamide], 630 nM.
As for `COc1cc(NC(=O)[C@H](N)CC(C)C)ccc1-c1ccnnc1` [Example 22, (R)-2-Amino-N-(3-methoxy-4-(pyridazin-4-yl)phenyl)-4-methylpentanamide], the figure is 140 nM.
